Converted amounts (≈) assume the structure as drawn. Read-outs that look alike come from different tables or passages of the source.
Columns and labels:
[1] = system: P. aeruginosa ATCC 27853 (APAE001); assay: MIC assay, CLSI broth microdilution; assay type: cell-based; details: Pseudomonas aeruginosa
Experimental: (§1) Minimum inhibitory concentrations (MIC) were determined by reference Clinical and Laboratory Standards Institute (CLSI) broth microdilution methods per M7-A7 [2006]. Quality control ranges utilizing E. coli ATCC 25922, P. aeruginosa ATCC 27853 and S. aureus ATCC 29213, and interpretive criteria for comparator agents were as published in CLSI M100-S17 [2007]. Briefly, serial two-fold dilutions of the test compounds were prepared at 2× concentration in Mueller Hinton Broth. The compound dilutions were mixed in 96-well assay plates in a 1:1 ratio with bacterial inoculum. The inoculum was prepared by suspension of a colony from an agar plate that was prepared the previous day. Bacteria were suspended in sterile saline and added to each assay plate to obtain a final concentration of 5×10^5 CFU/mL. The plates were incubated at 35° C. for 20 hours in ambient air.

[2] = system: E. coli ATCC 25922 (AECO001); assay: MIC assay, CLSI broth microdilution; assay type: cell-based; set-up: MIC AECO001: unit not given here; details: for MIC: Escherichia coli; for MIC AECO001: Table 3, E. coli ATCC25922
Experimental: as §1

[3] = ATCC27853, read-out: MIC APAE001
[4] = ATCC25922, read-out: MIC AECO001
[5] = Table 1, APAE001 is ATCC27853, read-out: MIC APAE001
[6] = Table 1, AECO001 is ATCC25922, read-out: MIC AECO001

| MIC [1, 5] [µg/mL] | MIC [2, 6] [µg/mL] | MIC AECO001 [2] | Compound | MIC [1, 3] [µg/mL] | MIC [2, 4] [µg/mL] |
| --- | --- | --- | --- | --- | --- |
| – | – | – | CN[C@@H]1[C@@H](O)[C@@H](O[C@@H]2[C@@H](O)[C@H](O[C@H]3OC(CNCC4CCCN4)=CC[C@H]3N)[C@@H](N)C[C@H]2NC(=O)[C@@H](O)CCN)OC[C@]1(C)O (stereo partly drawn) [Example 49, 6′-(Methyl-pyrrolidin-2-yl)-1-(4-amino-2(S)-hydroxy-butyryl)-sisomicin] | 1 to 16 (≈ 1.58 to 25.3 µM) | < 1 |
| – | – | – | CN[C@@H]1[C@@H](O)[C@@H](O[C@@H]2[C@@H](O)[C@H](O[C@H]3OC(CNC[C@H]4C[C@H](N)C4)=CC[C@H]3N)[C@@H](N)C[C@H]2NC(=O)[C@@H](O)CN)OC[C@]1(C)O [Example 59, 6′-(Methyl-trans-3-amino-cyclobutyl)-1-(3-amino-2(S)-hydroxy-propionyl)-sisomicin] | 1 to 16 (≈ 1.62 to 25.9 µM) | < 1 |
| – | – | – | CN[C@@H]1[C@@H](O)[C@@H](O[C@@H]2[C@@H](O)[C@H](O[C@H]3OC(CNCCO)=CC[C@H]3N)[C@@H](N)C[C@H]2NC(=O)C(O)C2CNC2)OC[C@]1(C)O (some centres unmarked) [Example 75, 6′-(2-Hydroxy-ethyl)-1-(2-(azetidin-3-yl)-2-hydroxy-acetyl)-sisomicin] | > 16 | 1 to 16 (≈ 1.65 to 26.5 µM) |
| – | – | – | CN[C@@H]1[C@@H](O)[C@@H](O[C@@H]2[C@@H](O)[C@H](O[C@H]3OC(CNCC4(O)CCNCC4)=CC[C@H]3N)[C@@H](N)C[C@H]2NC(=O)[C@@H](O)CCN)OC[C@]1(C)O [Example 31] | 1 to 16 (≈ 1.51 to 24.2 µM) | 1 to 16 (≈ 1.51 to 24.2 µM) |
| – | – | – | CN[C@@H]1[C@@H](O)[C@@H](O[C@@H]2[C@@H](O)[C@H](O[C@H]3OC(CNCC4(O)CC(N)C4)=CC[C@H]3N)[C@@H](N)C[C@H]2NC(=O)[C@@H](O)CCN)OC[C@]1(C)O (some centres unmarked) [Example 46] | 1 to 16 (≈ 1.54 to 24.7 µM) | < 1 |
| – | – | – | CN[C@@H]1[C@@H](O)[C@@H](O[C@@H]2[C@@H](O)[C@H](O[C@H]3OC(CNCC(O)CO)=CC[C@H]3N)[C@@H](N)C[C@H]2NC(=O)[C@H](O)CCN)OC[C@]1(C)O (stereo partly drawn) [Example 3, 6′-(2-Hydroxy-propanol)-1-(4-amino-2(R)-hydroxy-butyryl)-sisomicin] | > 16 | 1 to 16 (≈ 1.61 to 25.7 µM) |
| – | – | – | CN[C@@H]1[C@@H](O)[C@@H](O[C@@H]2[C@@H](O)[C@H](O[C@H]3OC(CNC[C@H]4C[C@H](N)C4)=CC[C@H]3N)[C@@H](N)C[C@H]2NC(=O)C2(O)CC(N)C2)OC[C@]1(C)O (some centres unmarked) [Example 60] | 1 to 16 (≈ 1.55 to 24.9 µM) | < 1 |
| – | – | – | CN[C@@H]1[C@@H](O)[C@@H](O[C@@H]2[C@@H](O)[C@H](O[C@H]3OC(CNCCO)=CC[C@H]3N)[C@@H](N)C[C@H]2NC(=O)CO)OC[C@]1(C)O [Example 25, 6′-(2-Hydroxy-ethyl)-1-(2-hydroxy-acetyl)-sisomicin] | 1 to 16 (≈ 1.82 to 29.1 µM) | 1 to 16 (≈ 1.82 to 29.1 µM) |
| – | – | – | CN[C@@H]1[C@@H](O)[C@@H](O[C@@H]2[C@@H](O)[C@H](O[C@H]3OC(CNCC4(O)CC(N)C4)=CC[C@H]3N)[C@@H](N)C[C@H]2NC(=O)C2(O)CNC2)OC[C@]1(C)O (some centres unmarked) [Example 47] | 1 to 16 (≈ 1.55 to 24.8 µM) | 1 to 16 (≈ 1.55 to 24.8 µM) |
| – | – | – | CN[C@@H]1[C@@H](O)[C@@H](O[C@@H]2[C@@H](O)[C@H](O[C@H]3OC(CNCC4CNC4)=CC[C@H]3N)[C@@H](N)C[C@H]2NC(=O)[C@@H](O)CN)OC[C@]1(C)O [Example 73, 6′-(Methyl-azetidin-3-yl)-1-(3-amino-2(S)-hydroxy-propionyl)-sisomicin] | 1 to 16 (≈ 1.66 to 26.5 µM) | 1 to 16 (≈ 1.66 to 26.5 µM) |
| – | – | – | CN[C@@H]1[C@@H](O)[C@@H](O[C@@H]2[C@@H](O)[C@H](O[C@H]3OC(CNCC4(CN)CC4)=CC[C@H]3N)[C@@H](N)C[C@H]2NC(=O)[C@@H](O)CN)OC[C@]1(C)O [Example 66, 6′-(Methyl-1-aminomethyl-cyclopropyl)-1-(3-amino-2(S)-hydroxy-propionyl)-sisomicin] | 1 to 16 (≈ 1.62 to 25.9 µM) | < 1 |
| – | – | – | CN[C@@H]1[C@@H](O)[C@@H](O[C@@H]2[C@@H](O)[C@H](O[C@H]3OC(CNCCCN)=CC[C@H]3N)[C@@H](N)C[C@H]2NC(=O)[C@H](O)CCN)OC[C@]1(C)O [Example 6, 6′-(3-Amino-propyl)-1-(4-amino-2(R)-hydroxy-butyryl)-sisomicin] | 1 to 16 (≈ 1.65 to 26.4 µM) | 1 to 16 (≈ 1.65 to 26.4 µM) |
| – | – | – | CN[C@@H]1[C@@H](O)[C@@H](O[C@@H]2[C@@H](O)[C@H](O[C@H]3OC(CNCC(N)CO)=CC[C@H]3N)[C@@H](N)C[C@H]2NC(=O)[C@@H](O)CCN)OC[C@]1(C)O (stereo partly drawn) [Example 30, 6′-(2-Amino-propanol)-1-(4-amino-2(S)-hydroxy-butyryl)-sisomicin] | 1 to 16 (≈ 1.61 to 25.7 µM) | < 1 |
| – | – | – | CN[C@@H]1[C@@H](O)[C@@H](O[C@@H]2[C@@H](O)[C@H](O[C@H]3OC(CNCCCCCN)=CC[C@H]3N)[C@@H](N)C[C@H]2NC(=O)[C@@H](O)CCN)OC[C@]1(C)O [Example 44, 6′-(5-Amino-pentyl)-1-(4-amino-2(S)-hydroxy-butyryl)-sisomicin] | 1 to 16 (≈ 1.58 to 25.2 µM) | < 1 |
| – | – | – | CN[C@@H]1[C@@H](O)[C@@H](O[C@@H]2[C@@H](O)[C@H](O[C@H]3OC(CN)=CC[C@H]3NCC(O)CO)[C@@H](N)C[C@H]2NC(=O)[C@@H](O)CCN)OC[C@]1(C)O (stereo partly drawn) [Example 100, 2′-(2-Hydroxy-propanol)-1-(4-amino-2(S)-hydroxy-butyryl)-sisomicin] | > 16 | 1 to 16 (≈ 1.61 to 25.7 µM) |
| – | – | – | CN[C@@H]1[C@@H](O)[C@@H](O[C@@H]2[C@@H](O)[C@H](O[C@H]3OC(CNCCC(N)C4CC4)=CC[C@H]3N)[C@@H](N)C[C@H]2NC(=O)[C@@H](O)CN)OC[C@]1(C)O (stereo partly drawn) [Example 52, 6′-(3-Amino-3-cyclopropyl-propyl)-1-(3-amino-2(S)-hydroxy-propionyl)-sisomicin] | 1 to 16 (≈ 1.58 to 25.3 µM) | < 1 |
| 1 to 16 (≈ 1.78 to 28.5 µM) | < 1 | 1 | CNCC1=CC[C@@H](N)[C@@H](O[C@H]2[C@H](O)[C@@H](O[C@H]3OC[C@](C)(O)[C@H](NC)[C@H]3O)[C@H](NC(=O)C3(O)CNC3)C[C@@H]2N)O1 [Example 61] | – | – |
| – | – | – | CN[C@@H]1[C@@H](O)[C@@H](O[C@@H]2[C@@H](O)[C@H](O[C@H]3OC(CNCCCCN)=CC[C@H]3N)[C@@H](N)C[C@H]2NC(=O)[C@@H](O)CCN)OC[C@]1(C)O [Example 43, 6′-(4-Amino-butyl)-1-(4-amino-2(S)-hydroxy-butyryl)-sisomicin] | < 1 | < 1 |
| – | – | – | CN[C@@H]1[C@@H](O)[C@@H](O[C@@H]2[C@@H](O)[C@H](O[C@H]3OC(CN)=CC[C@H]3NCC3CCCN3)[C@@H](N)C[C@H]2NC(=O)[C@@H](O)CCN)OC[C@]1(C)O (stereo partly drawn) [Example 85, 2′-(Methyl-pyrrolidin-2-yl)-1-(4-amino-2(S)-hydroxy-butyryl)-sisomicin] | 1 to 16 (≈ 1.58 to 25.3 µM) | < 1 |
| – | – | – | CN[C@@H]1[C@@H](O)[C@@H](O[C@@H]2[C@@H](O)[C@H](O[C@H]3OC(CNCC(O)CO)=CC[C@H]3N)[C@@H](N)C[C@H]2NC(=O)[C@@H](O)CN)OC[C@]1(C)O (stereo partly drawn) [Example 14, 6′-(2-Hydroxy-propanol)-1-(3-amino-2(S)-hydroxy-propionyl)-sisomicin] | 1 to 16 (≈ 1.64 to 26.3 µM) | 1 to 16 (≈ 1.64 to 26.3 µM) |
| – | – | – | CN[C@@H]1[C@@H](O)[C@@H](O[C@@H]2[C@@H](O)[C@H](O[C@H]3OC(CN)=CC[C@H]3NC(=O)CC3CNCCO3)[C@@H](N)C[C@H]2NC(=O)[C@@H](O)CCN)OC[C@]1(C)O (stereo partly drawn) [Example 92, 2′-(Morpholin-2-yl-acetyl)-1-(4-amino-2(S)-hydroxy-butyryl)-sisomicin] | > 16 | < 1 |
| – | – | – | CN[C@@H]1[C@@H](O)[C@@H](O[C@@H]2[C@@H](O)[C@H](O[C@H]3OC(CNCCCO)=CC[C@H]3N)[C@@H](N)C[C@H]2NC(=O)[C@@H](O)CN)OC[C@]1(C)O [Example 54, 6′-(3-Propanol)-1-(3-amino-2(S)-hydroxy-propionyl)-sisomicin] | 1 to 16 (≈ 1.69 to 27 µM) | < 1 |
| – | – | – | CN[C@@H]1[C@@H](O)[C@@H](O[C@@H]2[C@@H](O)[C@H](O[C@H]3OC(CN)=CC[C@H]3NS(=O)(=O)CCN)[C@@H](N)C[C@H]2NC(=O)[C@@H](O)CCN)OC[C@]1(C)O [Example 93, 2′-(2-Amino-ethyl-sulfonamide)-1-(4-amino-2(S)-hydroxy-butyryl)-sisomicin] | 1 to 16 (≈ 1.52 to 24.4 µM) | < 1 |
| – | – | – | CN[C@@H]1[C@@H](O)[C@@H](O[C@@H]2[C@@H](O)[C@H](O[C@H]3OC(CNCC(O)C(N)=O)=CC[C@H]3N)[C@@H](N)C[C@H]2NC(=O)[C@@H](O)CN)OC[C@]1(C)O (stereo partly drawn) [Example 21, 6′-(2-Hydroxy-3-propionamide)-1-(3-amino-2(S)-hydroxy-propionyl)-sisomicin] | 1 to 16 (≈ 1.61 to 25.7 µM) | 1 to 16 (≈ 1.61 to 25.7 µM) |
| – | – | – | CN[C@@H]1[C@@H](O)[C@@H](O[C@@H]2[C@@H](O)[C@H](O[C@H]3OC(CNCC(O)CN)=CC[C@H]3N)[C@@H](N)C[C@H]2NC(=O)C(O)C2CNC2)OC[C@]1(C)O (some centres unmarked) [Example 82, 6′-(2-Hydroxy-3-amino-propyl)-1-(2-(azetidin-3-yl)-2-hydroxy-acetyl)-sisomicin] | > 16 | 1 to 16 (≈ 1.58 to 25.2 µM) |
| 1 to 16 (≈ 1.66 to 26.5 µM) | < 1 | 1 | CN[C@@H]1[C@@H](O)[C@@H](O[C@@H]2[C@@H](O)[C@H](O[C@H]3OC(CNCC4CC4)=CC[C@H]3N)[C@@H](N)C[C@H]2NC(=O)[C@@H](O)CCN)OC[C@]1(C)O [Example 18, 6′-(Methyl-cyclopropyl)-1-(4-amino-2(S)-hydroxy-butyryl)-sisomicin] | – | – |
| – | – | – | CN[C@@H]1[C@@H](O)[C@@H](O[C@@H]2[C@@H](O)[C@H](O[C@H]3OC(CNCC4(CN)CC4)=CC[C@H]3N)[C@@H](N)C[C@H]2NC(=O)C(O)C2CNC2)OC[C@]1(C)O (some centres unmarked) [Example 74, 6′-(Methyl-1-aminomethyl-cyclopropyl)-1-(2-(azetidin-3-yl)-2-hydroxy-acetyl)-sisomicin] | > 16 | 1 to 16 (≈ 1.55 to 24.9 µM) |
